The results in this text go back to patent publication US7652005B2, “Tricyclic δ-opioid modulators” (Janssen Pharmaceutica N.V., priority 2004, dated 2010).

One test addresses T1, delta opioid receptor (Rattus norvegicus, UniProt P33533).
T1 construct: from tissue; host or cells: rat forebrain homogenate (male Wistar rats), particulate membrane preparation
In words: Rat Brain Delta Opioid Receptor Binding Assay. As to conditions: rat forebrain membrane preparation; [3H]DPDPE or [3H]naltrindole, 25° C., 2.5 h.

The next test addresses T2, mu opioid receptor (Rattus norvegicus, UniProt P33535).
T2 construct: Following incubation with the mu selective peptide ligand, ˜0.8 nM [^3H]DAMGO; from tissue; host or cells: rat forebrain homogenate (male Wistar rats), particulate membrane preparation
In words: Rat Brain Mu Opioid Receptor Binding Assay. Particulars: rat forebrain membrane preparation; [3H]DAMGO, 25° C., 2.5 h.

pKi: −log10 of the molar value.

T1 sequence (P33533 whole entry): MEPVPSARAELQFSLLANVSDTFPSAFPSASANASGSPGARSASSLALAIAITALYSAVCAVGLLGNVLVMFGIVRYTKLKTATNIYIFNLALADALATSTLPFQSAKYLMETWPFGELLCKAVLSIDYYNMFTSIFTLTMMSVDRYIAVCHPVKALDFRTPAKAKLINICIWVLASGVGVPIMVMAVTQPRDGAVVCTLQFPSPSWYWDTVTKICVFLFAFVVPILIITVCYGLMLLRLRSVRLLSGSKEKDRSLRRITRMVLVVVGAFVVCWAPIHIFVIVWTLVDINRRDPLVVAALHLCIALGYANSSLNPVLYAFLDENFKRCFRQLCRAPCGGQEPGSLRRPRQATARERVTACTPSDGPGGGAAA
T2 sequence (P33535 whole entry): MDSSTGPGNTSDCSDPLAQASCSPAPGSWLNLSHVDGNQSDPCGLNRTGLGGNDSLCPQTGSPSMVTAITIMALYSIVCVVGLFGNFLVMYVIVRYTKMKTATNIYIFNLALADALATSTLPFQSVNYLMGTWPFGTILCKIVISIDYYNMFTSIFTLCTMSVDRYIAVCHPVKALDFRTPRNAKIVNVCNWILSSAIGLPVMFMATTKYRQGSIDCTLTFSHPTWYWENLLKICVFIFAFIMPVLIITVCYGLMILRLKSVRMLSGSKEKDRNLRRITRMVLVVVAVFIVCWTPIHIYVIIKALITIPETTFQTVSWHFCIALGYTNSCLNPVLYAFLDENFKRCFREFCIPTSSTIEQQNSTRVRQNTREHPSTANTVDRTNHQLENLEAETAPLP

In the case of `CC(=O)Nc1ccccc1-c1ccc2c(c1)Sc1ccccc1N2C1C[C@H]2CC[C@@H](C1)N2CCc1ccccc1` (mixture of isomers) [Compound 14i, N-{2-[10-(8-Phenethyl-8-aza-bicyclo[3.2.1]oct-3-yl)-10H-phenothiazin-3-yl]-phenyl}-acetamide], the pKi (usually the Ki on a negative log10 scale, so that one unit is a factor of ten) was 5.79 on delta opioid receptor and 6.22 at mu opioid receptor.

`CC(C)=CCN1[C@@H]2CC[C@H]1CC(N1c3ccccc3Sc3cc(-c4cccnc4)ccc31)C2` (mixture of isomers) [Compound 8i, 10-[8-(3-Methyl-but-2-enyl)-8-aza-bicyclo[3.2.1]oct-3-yl]-3-pyridin-3-yl-10H-phenothiazine]: the pKi is 6.35 at delta opioid receptor and 6.05 at mu opioid receptor.

For the compound `CN(CCc1ccccc1)C(=O)c1ccc2c(c1)Oc1ccccc1N2C1CC2CCC(C1)N2C` (stereo not drawn) [Compound 6a, 10-(8-Methyl-8-aza-bicyclo[3.2.1]oct-3-yl)-10H-phenoxazine-3-carboxylic acid methyl-phenethyl-amide], the values for the pKi at delta opioid receptor and at mu opioid receptor were 6.24 and 6.09, respectively.

Take `c1csc(CN2[C@@H]3CC[C@H]2CC(N2c4ccccc4Sc4cc(-c5ccncc5)ccc42)C3)c1` (mixture of isomers) [Compound 12i, 3-Pyridin-4-yl-10-(8-thiophen-2-ylmethyl-8-aza-bicyclo[3.2.1]oct-3-yl)-10H-phenothiazine]: the figures for the negative-log Ki (pKi) on delta opioid receptor and at mu opioid receptor were 6.31 and 5.84, respectively.

In the case of `c1ccc(CN2[C@@H]3CC[C@H]2CC(N2c4ccccc4Sc4cc(-c5cccnc5)ccc42)C3)nc1` (mixture of isomers) [Compound 9i, 3-Pyridin-3-yl-10-(8-pyridin-2-ylmethyl-8-aza-bicyclo[3.2.1]oct-3-yl)-10H-phenothiazine], the pKi at delta opioid receptor was 6.19; at mu opioid receptor it was 6.27.

Regarding `N#Cc1ccc2c(c1)Oc1ccccc1N2[C@H]1C[C@H]2CC[C@@H](C1)N2` [Compound 8b, Endo-10-(8-Aza-bicyclo[3.2.1]oct-3-yl)-10H-phenoxazine-3-carbonitrile], the figures for the pKi at delta opioid receptor and at mu opioid receptor were 5.72 and less than 5.00, respectively.

On to `Brc1ccc2c(c1)Sc1ccccc1N2C1C[C@H]2CC[C@@H](C1)N2` (mixture of isomers) [Compound 4i, 10-(8-Aza-bicyclo[3.2.1]oct-3-yl)-3-bromo-10H-phenothiazine], for which the values for the pKi on delta opioid receptor and at mu opioid receptor were 6.06 and 5.18, respectively.

For the compound `C=CCN1[C@@H]2CC[C@H]1CC(N1c3ccccc3Sc3cc(-c4ccccc4NC(C)=O)ccc31)C2` (mixture of isomers) [Compound 13i, N-{2-[10-(8-Allyl-8-aza-bicyclo[3.2.1]oct-3-yl)-10H-phenothiazin-3-yl]-phenyl}-acetamide], the pKi at delta opioid receptor is 6.26; on mu opioid receptor, 5.43.

`O=c1[nH]c(-c2ccc3c(c2)Oc2ccccc2N3[C@H]2C[C@H]3CC[C@@H](C2)N3CCc2ccccc2)no1` [Compound 7d, Endo-3-[10-(8-Phenethyl-8-aza-bicyclo[3.2.1]oct-3-yl)-10H-phenoxazin-3-yl]-4H-[1,2,4]oxadiazol-5-one]: the pKi is 5.58 at delta opioid receptor and 6.91 at mu opioid receptor.

Take `CC(=O)Nc1ccccc1-c1ccc2c(c1)Sc1ccccc1N2C1C[C@H]2CC[C@@H](C1)N2Cc1ccoc1` (mixture of isomers) [Compound 7i, N-{2-[10-(8-Furan-3-ylmethyl-8-aza-bicyclo[3.2.1]oct-3-yl)-10H-phenothiazin-3-yl]-phenyl}-acetamide]: the pKi on delta opioid receptor was 6.91; at mu opioid receptor it was 6.26.

For the compound `c1cncc(-c2ccc3c(c2)Sc2ccccc2N3C2C[C@H]3CC[C@@H](C2)N3Cc2ccoc2)c1` (mixture of isomers) [Compound 6i, 10-(8-Furan-3-ylmethyl-8-aza-bicyclo[3.2.1]oct-3-yl)-3-pyridin-3-yl-10H-phenothiazine], the results for the pKi at delta opioid receptor and at mu opioid receptor were 6.55 and 5.98, respectively.

`CC(=O)Nc1ccccc1-c1ccc2c(c1)Sc1ccccc1N2C1C[C@H]2CC[C@@H](C1)N2C` (mixture of isomers) [Compound 16i, N-{2-[10-(8-Methyl-8-aza-bicyclo[3.2.1]oct-3-yl)-10H-phenothiazin-3-yl]-phenyl}-acetamide]: the pKi was 5.84 on delta opioid receptor and 5.58 at mu opioid receptor.

As to `CC(=O)Nc1ccccc1-c1ccc2c(c1)Sc1ccccc1N2C1C[C@H]2CC[C@@H](C1)N2Cc1ncc[nH]1` (mixture of isomers) [Compound 15i, N-(2-{10-[8-(1H-Imidazol-2-ylmethyl)-8-aza-bicyclo[3.2.1]oct-3-yl]-10H-phenothiazin-3-yl}-phenyl)-acetamide], the results for the negative-log Ki (pKi) at delta opioid receptor and on mu opioid receptor were 6.20 and 6.77, respectively.

Consider `CC(C)=CCN1[C@@H]2CC[C@H]1CC(N1c3ccccc3Sc3cc(-c4ccncc4)ccc31)C2` (mixture of isomers) [Compound 10i, 10-[8-(3-Methyl-but-2-enyl)-8-aza-bicyclo[3.2.1]oct-3-yl]-3-pyridin-4-yl-10H-phenothiazine], for which the results for the negative-log Ki (pKi) on delta opioid receptor and at mu opioid receptor were 6.02 and 6.50, respectively.

As for `CN1C2CCC1CC(N1c3ccccc3Oc3cc(-c4noc(=O)[nH]4)ccc31)C2` (stereo not drawn) [Compound 2h, 3-[10-(8-Methyl-8-aza-bicyclo[3.2.1]oct-3-yl)-10H-phenoxazin-3-yl]-4H-[1,2,4]oxadiazol-5-one], the pKi was 6.22 at delta opioid receptor and 5.54 at mu opioid receptor.
